Results reported in US20250243219A1, “MACROCYCLIC COMPOUNDS AND USES THEREOF” (Cypralis Limited, priority 2022, published 2025).

Experiments:
[1] = test system: SH-SY5Y cells; assay: Thapsigargin treated cell death assay in SH-SY5Y cells; format: cell-based, human; settings: compound at 10 μM; positive = protection from cell death, negative = compound toxicity
Source text: Thapsigargin raises intracellular free calcium (Ca^2+) by potently inhibiting the endoplasmic reticulum Ca-ATPase, which sequesters Ca^2+ from the cytosol. The increased cytosolic Ca^2+ concentration is buffered by mitochondria by exchanging Ca^2+ for K, leading to depolarisation in the inner mitochondrial membrane and permeability transition.
The thapsigargin treated Jurkat cell death assay is a homogeneous 96 well plate based assay for cell death, instigated by the opening of the mitochondrial permeability transition pore (MPTP). The addition of thapsigargin to Jurkat cells results in an influx of calcium, the increase in intracellular calcium will initially be buffered by the mitochondria, but eventually the increasing calcium concentration will result in the opening of the MPTP, resulting in cell death.
CellTox™ Green is a dye which is unable to enter the cell until cell death leads to the loss of membrane integrity. Once this happens the CellTox™ Green enters the cell, binds to the cell's DNA and emits a fluorescent signal. […] Unless otherwise stated, the assay is typically run using a range of three compound concentrations of 1, 3 and 10 μM in triplicate and is read kinetically over a period of 24 hours. Compounds are added 30 minutes before the addition of thapsigargin. Compound only controls and positive control, cyclosporin A (CsA) (3 and 10 μM) are also included in the assay. Results are typically calculated at the 8 hour time point and the kinetic data is also reported.
The assay is carried out as described for the Jurkat cells but using the SH-SY5Y (human neuroblastoma) cell line instead of Jurkat cells. The results are shown in the fourth column of Table 5 (SY5Y [10 μM]% recovery). Positive numbers indicate protection from cell death, negative numbers indicate compound toxicity.

[2] = biological target: cyclophilin A (Homo sapiens (Human), UniProt P62937); assay: Functional peptidyl prolyl isomerase (PPIase) spectrophotometric assay, cyclophilin A; format: biochemical; settings: first value of CypA/D cell
cyclophilin A, sequence (P62937 whole entry, species assumed): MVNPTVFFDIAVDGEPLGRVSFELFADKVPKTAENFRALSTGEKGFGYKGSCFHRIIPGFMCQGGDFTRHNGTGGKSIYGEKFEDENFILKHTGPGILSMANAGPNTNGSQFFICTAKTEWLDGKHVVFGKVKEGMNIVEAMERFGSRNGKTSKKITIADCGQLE
Source text: (§1) Cyclophilins are enzymes that catalyse the cis-trans isomerisation of peptide bonds to the amino acid proline. This event is important in many biological processes, including protein folding and signal transduction. […] The method to measure this activity and its inhibition is similar to that described by Jankowski (Analytical Biochemistry, 252, 2, 299-307 (1997)). The assay measures the cis to trans isomerisation of a peptide substrate catalysed by a PPlase enzyme using a UV/Vis spectrophotometer. This assay is a manual single cuvette-based assay. A first order rate equation is fitted to the absorbance data to obtain a rate constant. The catalytic rate is calculated from the enzymatic rate minus the background rate. The Ki (the concentration required to produce half maximum inhibition) for an inhibitor is obtained from the rate constant plotted against the inhibitor concentration. Typically, a 6-point dose response curve is obtained from duplicates and a Ki determined. Data are given in Table 5 as Ki [nM] for cyclophilins A and D, expressed in column 2 of Table 5 as Ki (cypA)/Ki (cypD).

[3] = biological target: cyclophilin D (Homo sapiens (Human), UniProt P30405); assay: Functional peptidyl prolyl isomerase (PPIase) spectrophotometric assay, cyclophilin D; format: biochemical; settings: second value of CypA/D cell; read-out: Ki CypD
cyclophilin D, sequence (P30405 30-207, species assumed): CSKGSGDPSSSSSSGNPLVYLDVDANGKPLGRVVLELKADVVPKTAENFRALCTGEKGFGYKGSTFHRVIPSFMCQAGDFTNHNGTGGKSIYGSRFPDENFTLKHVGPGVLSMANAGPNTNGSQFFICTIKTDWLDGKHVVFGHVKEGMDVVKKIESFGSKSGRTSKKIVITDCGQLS
Source text: as §1

[4] = test system: permeabilised HepG2 cells; assay: Calcium retention capacity (CRC) assay in permeabilised HepG2 cells (MPTP opening); format: cell-based, human; parameters: CRC [10 μM]: unit not given here; settings: compound at 10 μM; for CRC [10 μM]: digitonin permeabilised HepG2 cells; for CRC [10 μM] (ratio vs CsA): normalised to cyclosporin A, value in brackets
Protocol: The use of permeabilised cells means that inhibitory compounds that may not normally enter non-permeabilised cells are more likely to be active.
The calcium retention capacity (CRC) is a measure of the capability of mitochondria to retain calcium, primarily in the form of calcium phosphates, in the mitochondrial matrix.
In a CRC assay, the calcium indicator Calcium Green-5N (InVitrogen) is utilized. […] The assay is carried out in HepG2 (human hepatocellular carcinoma) cells which are digitonin permeabilized. Trains of calcium pulses (typically 5 μM additions) are added which results in a sudden increase in fluorescence which is then reduced by mitochondrial buffering. The cells will reach a point at which the calcium addition is no longer buffered, an indication that the MPTP has opened (mitochondrial permeability transition).
The experiment is performed with and without inhibitor. A compound that acts to inhibit the mitochondrial pore opening will result in a greater requirement for calcium to reach the transition point. The results are normalised to a positive control (cyclosporin A) in each experiment. The results are shown in column 3 of Table 5 as CRC [10 μM] (ratio vs CsA). The method of digitonin permeabilised whole cell CRC assay is similar to that used by Chiara et al. (PLoS One, March, 3, 3, e1852 (2008)).

## C[C@@H]1NC(=O)[C@H](C[C@H]2CCCN(C)C2)OC(=O)C(C)(C)/C=C/c2ccc3ccc(nc3c2)N(C)NC(=O)[C@@H]2CCCN(N2)C1=O [Compound (37)]
[1]
  SYSY [10 μM] % recovery: 41%
[2]
  Ki: 150 nM
[3]
  Ki: 160 nM
[4]
  CRC [10 μM]: 5
  CRC [10 μM] (ratio vs CsA): 0.33

## C[C@@H]1NC(=O)C(Cc2ccc(N)nc2)OC(=O)C(C)(C)/C=C/c2ccc3ccc(nc3c2)N(C)NC(=O)[C@@H]2CCCN(N2)C1=O (some centres unmarked) [Compound (43)]
[1]
  SYSY [10 μM] % recovery: 10%
[2]
  Ki: 44 nM
[3]
  Ki: 40 nM
[4]
  CRC [10 μM]: 10
  CRC [10 μM] (ratio vs CsA): 0.67

## C[C@@H]1NC(=O)[C@H](Cc2ccc(NS(C)(=O)=O)cc2)OC(=O)C(C)(C)/C=C/c2ccc3ccc(nc3c2)N(C)NC(=O)[C@@H]2CCCN(N2)C1=O [Compound (46)]
[1]
  SYSY [10 μM] % recovery: 29%
[2]
  Ki: 3 nM
[3]
  Ki: 2.5 nM
[4]
  CRC [10 μM]: 25
  CRC [10 μM] (ratio vs CsA): 1.00

## C[C@@H]1NC(=O)[C@H](CN2CCNCC2)OC(=O)C(C)(C)/C=C/c2ccc3ccc(nc3c2)N(C)NC(=O)[C@@H]2CCCN(N2)C1=O [Compound (48)]
[1]
  SYSY [10 μM] % recovery: 46%
[2]
  Ki: 26 nM
[3]
  Ki: 11 nM
[4]
  CRC [10 μM]: 10
  CRC [10 μM] (ratio vs CsA): 0.5

## CC(C)C(=O)Nc1cccc(C[C@@H]2OC(=O)C(C)(C)/C=C/c3ccc4ccc(nc4c3)N(C)NC(=O)[C@@H]3CCCN(N3)C(=O)[C@H](C)NC2=O)c1 [Compound (49)]
[1]
  SYSY [10 μM] % recovery: 40%
[2]
  Ki: 22 nM
[3]
  Ki: 14 nM
[4]
  CRC [10 μM]: 20
  CRC [10 μM] (ratio vs CsA): 1.00

## C[C@@H]1NC(=O)[C@H](Cc2cccc(N)c2)OC(=O)C(C)(C)/C=C/c2ccc3ccc(nc3c2)N(C)NC(=O)[C@@H]2CCCN(N2)C1=O [Compound (50)]
[1]
  SYSY [10 μM] % recovery: 25%
[2]
  Ki: 2.4 nM
[3]
  Ki: 1.6 nM
[4]
  CRC [10 μM]: 20
  CRC [10 μM] (ratio vs CsA): 1.00

## C[C@@H]1NC(=O)[C@H](CCl)OC(=O)C(C)(C)/C=C/c2ccc3ccc(nc3c2)N(C)NC(=O)[C@@H]2CCCN(N2)C1=O [Compound (53)]
[1]
  SYSY [10 μM] % recovery: 21%
[2]
  Ki: 15 nM
[3]
  Ki: 28 nM
[4]
  CRC [10 μM]: 25
  CRC [10 μM] (ratio vs CsA): 0.83

## C[C@@H]1NC(=O)[C@H](CCC(N)=O)OC(=O)C(C)(C)/C=C/c2ccc3ccc(nc3c2)N(C)NC(=O)[C@@H]2CCCN(N2)C1=O [Compound (54)]
[1]
  SYSY [10 μM] % recovery: 10%
[2]
  Ki: 36 nM
[3]
  Ki: 700 nM
[4]
  CRC [10 μM]: 15
  CRC [10 μM] (ratio vs CsA): 0.50

## C[C@@H]1NC(=O)[C@H](CCCN)OC(=O)C(C)(C)/C=C/c2ccc3ccc(nc3c2)N(C)NC(=O)[C@@H]2CCCN(N2)C1=O [Compound (55)]
[1]
  SYSY [10 μM] % recovery: 37%
[2]
  Ki: 110 nM
[3]
  Ki: 1900 nM
[4]
  CRC [10 μM]: 5
  CRC [10 μM] (ratio vs CsA): 0.25

## C[C@@H]1NC(=O)[C@H](CC2CCCNC2)OC(=O)C(C)(C)/C=C/c2ccc3ccc(nc3c2)N(C)NC(=O)[C@@H]2CCCN(N2)C1=O (some centres unmarked) [Compound (56)]
[1]
  SYSY [10 μM] % recovery: 15%
[2]
  Ki: 295 nM
[3]
  Ki: 56.6 nM
[4]
  CRC [10 μM]: 8
  CRC [10 μM] (ratio vs CsA): 0.36

## C[C@@H]1NC(=O)[C@H](C[C@@H]2CCCNC2)OC(=O)C(C)(C)/C=C/c2ccc3ccc(nc3c2)N(C)NC(=O)[C@@H]2CCCN(N2)C1=O [Compound (57)]
[1]
  SYSY [10 μM] % recovery: 48.48%
[2]
  Ki: 7.8 nM
[3]
  Ki: 7.6 nM
[4]
  CRC [10 μM]: 15
  CRC [10 μM] (ratio vs CsA): 0.75

## COc1ccc(C[C@@H]2OC(=O)C(C)(C)/C=C/c3ccc4ccc(nc4c3)N(C)NC(=O)[C@@H]3CCCN(N3)C(=O)[C@H](C)NC2=O)cc1 [Compound (60)]
[1]
  SYSY [10 μM] % recovery: 37%
[2]
  Ki: 1.3 nM
[3]
  Ki: 9.5 nM
[4]
  CRC [10 μM]: 25
  CRC [10 μM] (ratio vs CsA): 0.80

## CC(C)[C@@H]1OC(=O)C(C)(C)/C=C/c2ccc3ccc(nc3c2)N(C)NC(=O)[C@@H]2CCCN(N2)C(=O)[C@H](CCCCNCc2ccc3ccccc3c2)NC1=O [Compound (61)]
[1]
  SYSY [10 μM] % recovery: 35%
[2]
  Ki: 1.85 nM
[3]
  Ki: 4.25 nM
[4]
  CRC [10 μM]: 20
  CRC [10 μM] (ratio vs CsA): 0.78

## CC(C)[C@@H]1OC(=O)C(C)(C)/C=C/c2ccc3ccc(nc3c2)N(C)NC(=O)[C@@H]2CCCN(N2)C(=O)[C@H](CCC(=O)Nc2ccccc2)NC1=O [Compound (63)]
[1]
  SYSY [10 μM] % recovery: 48%
[2]
  Ki: 11 nM
[3]
  Ki: 15 nM
[4]
  CRC [10 μM]: 30
  CRC [10 μM] (ratio vs CsA): 1.00

## CC(C)[C@@H]1OC(=O)C(C)(C)/C=C/c2ccc3ccc(nc3c2)N(C)NC(=O)[C@@H]2CCCN(N2)C(=O)[C@H](CCC(=O)N(C)c2ccccc2)NC1=O [Compound (64)]
[1]
  SYSY [10 μM] % recovery: 44%
[2]
  Ki: 5.1 nM
[3]
  Ki: 59 nM
[4]
  CRC [10 μM]: 25
  CRC [10 μM] (ratio vs CsA): 1.00

## CC(C)[C@@H]1OC(=O)C(C)(C)/C=C/c2ccc3ccc(nc3c2)N(C)NC(=O)[C@@H]2CCCN(N2)C(=O)[C@H](CCC(=O)NCc2cccnc2)NC1=O [Compound (65)]
[1]
  SYSY [10 μM] % recovery: 51%
[2]
  Ki: 14 nM
[3]
  Ki: 22 nM
[4]
  CRC [10 μM]: 20
  CRC [10 μM] (ratio vs CsA): 0.90

## CC(C)[C@@H]1OC(=O)C(C)(C)/C=C/c2ccc3ccc(nc3c2)N(C)NC(=O)[C@@H]2CCCN(N2)C(=O)[C@H](CCC(=O)N[C@H](C)c2ccccc2)NC1=O [Compound (66)]
[1]
  SYSY [10 μM] % recovery: 63%
[2]
  Ki: 3.6 nM
[3]
  Ki: 6.6 nM
[4]
  CRC [10 μM]: 25
  CRC [10 μM] (ratio vs CsA): 0.80

## CC(C)[C@@H]1OC(=O)C(C)(C)/C=C/c2ccc3ccc(nc3c2)N(C)NC(=O)[C@@H]2CCCN(N2)C(=O)[C@H](CCC(=O)NCC2CCOCC2)NC1=O [Compound (67)]
[1]
  SYSY [10 μM] % recovery: 52%
[2]
  Ki: 40 nM
[3]
  Ki: 26 nM
[4]
  CRC [10 μM]: 25
  CRC [10 μM] (ratio vs CsA): 1.00

## CC(C)[C@@H]1OC(=O)C(C)(C)/C=C/c2ccc3ccc(nc3c2)N(C)NC(=O)[C@@H]2CCCN(N2)C(=O)[C@H](CCC(=O)NCc2cnn(C)c2)NC1=O [Compound (68)]
[1]
  SYSY [10 μM] % recovery: 37%
[2]
  Ki: 16 nM
[3]
  Ki: 9.9 nM
[4]
  CRC [10 μM]: 25
  CRC [10 μM] (ratio vs CsA): 0.83

## CC(C)[C@@H]1OC(=O)C(C)(C)/C=C/c2ccc3ccc(nc3c2)N(C)NC(=O)[C@@H]2CCCN(N2)C(=O)[C@H](CCC(=O)N2CCNCC2)NC1=O [Compound (69)]
[1]
  SYSY [10 μM] % recovery: 17%
[2]
  Ki: 34 nM
[3]
  Ki: 41 nM
[4]
  CRC [10 μM]: 20
  CRC [10 μM] (ratio vs CsA): 0.80

## CC(C)[C@@H]1OC(=O)C(C)(C)/C=C/c2ccc3ccc(nc3c2)N(C)NC(=O)[C@@H]2CCCN(N2)C(=O)[C@H](CCC(=O)N2CCN(C)CC2)NC1=O [Compound (70)]
[1]
  SYSY [10 μM] % recovery: 44%
[2]
  Ki: 6.7 nM
[3]
  Ki: 53 nM
[4]
  CRC [10 μM]: 25
  CRC [10 μM] (ratio vs CsA): 1.00

## CC(C)[C@@H]1OC(=O)C(C)(C)/C=C/c2ccc3ccc(nc3c2)N(C)NC(=O)[C@@H]2CCCN(N2)C(=O)[C@H](CCC(=O)NC2CCN(C)CC2)NC1=O [Compound (71)]
[1]
  SYSY [10 μM] % recovery: 4%
[2]
  Ki: 51 nM
[3]
  Ki: 16 nM
[4]
  CRC [10 μM]: 18.3
  CRC [10 μM] (ratio vs CsA): 0.76
